Measurements: PMC5131319, “Occurrence, temporal trends, and half-lives of perfluoroalkyl acids (PFAAs) in occupational workers in China” (Scientific Reports, 2016)

How the values were obtained:
[1] = PFAA concentration in morning urine of occupational workers (HPLC-ESI/MS/MS); type: in vivo, human
Method: The selected fluorochemical plant (Henxin Chemical Plant) in this study is one of the largest producers of PFOS-related chemicals in China and is located in Yingcheng, Hubei province. Perfluoroalkyl sulfonic acids (PFSAs) and perfluorotertiary amines are synthesized through an electro-chemical fluorination (ECF) process. We collected paired serum and urine samples from the occupational workers in the plant for five consecutive years, and the sampling activities were carried out in Nov. 2008, Nov. 2009, Nov. 2010, Dec. 2011, and Dec 2012, respectively. The Medical Research Ethics Committee, School of Medicine, Jianghan University, approved the ethics of this study, and all methods were performed in accordance with the relevant guidelines and regulations, moreover, all volunteers gave written informed consent. Demographic information of the donors, including gender, age, length of service, and work assignment, was collected with a questionnaire (Table S1). The sampled population included a total of 302 occupational workers, of which there were 89 female and 213 male participants. In total, 302 serum and 274 urine samples were collected.
The participants were told not to eat breakfast before the sampling, and morning urine samples and blood samples were collected. Serum was separated from the blood by centrifugation at 1100 × g at 4 °C for 10 min and then placed on ice. Serum samples were then transferred to our laboratory on the same day and stored in polypropylene containers at −20 °C until analysis.
All pre-treatment methods and instrument analysis of PFAAs in serum and urine samples are based on previous studies with minor modifications (see Supplementary Information)[3][31]. Based on the PFAA profiles in environmental matrices around the same plant in our previous study, only 3 main PFAAs, PFHxS, PFOA, and PFOS, were analyzed in the obtained serum and urine samples. Instrumental analysis of the PFAAs was performed by a HPLC-ESI/MS/MS system (HPLC: Waters 2695, MS: Waters Quattro Premier XE). The limits of detection (LODs) of PFHxS, PFOA, and PFOS were 0.020, 0.063, and 0.018 ng mL^−1 for serum samples and 0.008, 0.025, and 0.007 ng mL^−1 for urine samples, respectively. A procedural blank was performed for every batch of seven samples, and all of the blank levels were below the LODs. […] Details of quality assurance and quality control of the chemical analysis can be found in the Supplementary Information.
Urine samples were pretreated by solid phase extraction. Briefly, 1 mL of urine spiked with 5 ng of internal standard was added to a 15 - mL PP tube and diluted with 13 mL water. The solid phase extraction procedure was then performed following the previously described serum extraction procedure.

[2] = cited from earlier work
[3] = Half-life estimated by daily clearance rates (first-order model, k = Cltotal/Vd); type: in vivo, human; conditions: for half-life: human, serum and urine, other: occupational exposure
Source text: (§1) Olsen et al.[21] found linear relationship between the logarithm of serum PFAAs concentration and time, and a first order model was adopted to estimate the half-lives of PFAAs. The elimination of PFAAs in humans was also described with the following equation: […]
(§2) If we set C(t) as 1/2C0, then the half-life
(§3) where k is the elimination rate constant. We calculated k using two approaches in the present study. In the first approach, k is defined as Cltotal/Vd, where Vd stands for the volume of distribution of PFAAs in the human body. Cltotal represents the total daily PFAAs clearance in the human body; for men and women older than 50, it refers to renal clearance, while for young women, it is defined as the sum of menstrual clearance and renal clearance. To keep consistency with other studies, Vd of PFOS and PFHxS were set at 230 mL kg^−1, and Vd of PFOA was set at 170 mL kg^−1 in this study. In the second approach, k is defined as the average annual decline rates of PFAAs in workers who participated in this study.
We used a first order model to estimate the half-lives of PFAAs in workers (Eq (2)). k was defined as […], where Cltotal referred to renal clearance for men and women older than 50 and to the sum of menstrual clearance and renal clearance for young women. According to Eq (2), the half-lives of PFHxS, PFOA, and PFOS for the occupational workers tested ranged from 0.51–3799 years, 0.44–3663 years, and 0.76–30475 years, with GM and median values of 14.7 and 11.7, 4.1 and 4.0, 32.6 and 21.6 years, respectively (Table 2). […] The GM values of the half-lives of PFHxS, PFOA, and PFOS for men here were 19.9, 4.7, and 60.9 years, respectively, while those for women were 7.5, 3.1, and 8.0 years, respectively. The half-lives estimated by the limited clearance route information could be considered as the upper limits for PFAAs. It seemed likely that the unrealistically long half-life estimates derived from the urinary data were actually evidence of the contribution of fecal elimination to the clearance of these chemicals. The extremely long half-lives of PFAAs, such as 3799 years for PFHxS, 3663 years for PFOA, and 30475 years for PFOS, were caused by the application of LOD/2 instead of ND in workers’ urine samples. The geometric mean or median value of the PFAAs half-lives can better reflect the actual situation.

[4] = parameters: method as in PMID 23980546, PMID 12499116, PMID 20236705; conditions: set value; cited from earlier work
[5] = Half-life estimated by annual decline rates of serum PFAAs (first-order model); type: in vivo, human
Source text: as §1, §2, §3
Serum PFAAs of workers were sequentially measured for 5 years, and they fluctuated during our sampling period, although different serum PFAAs decreased in certain years. […] For PFOA, 31 out of 42 workers decreased in the period of 2011–2012, and the serum PFOA concentration dropped by 41%. […] We assumed that there were no new inputs of PFAAs in these workers, and thus k in Eq (2) was set as the average annual serum PFAA decline rate. The half-lives of PFHxS, PFOA, and PFOS estimated by Eq (2) were 3.6, 1.7, and 1.9 years.

[6] = Fabric finishing agent department, N 8
[7] = Female workers, number 71, menstrual clearance added to renal clearance

In the case of `O=S(=O)(O)C(F)(F)C(F)(F)C(F)(F)C(F)(F)C(F)(F)C(F)(F)F` [PFHxS, perfluorohexane sulfonate], the “Urine concentration, mean” value ([1]; All workers, N 274) is reported as 3.9 ng/mL, the “Urine concentration, median” value ([1]; All workers, N 274) is reported as 1.7 ng/mL and the “Urine concentration, mean” value ([1]; Electrolytic department, N 67) is reported as 2.3 ng/mL. For the same compound, the “Urine concentration, median” value ([1]; Electrolytic department, N 67) was 1.3 ng/mL, the “Urine concentration, mean” value [1, 6] was 3.5 ng/mL and the “Urine concentration, median” value [1, 6] was 2.4 ng/mL. For the same compound, the “Urine concentration, range” value [1, 6] was 0.79 to 7.1 ng/mL, the “Urine concentration, mean” value ([1]; Management office, N 76) was 0.93 ng/mL and the “Urine concentration, median” value ([1]; Management office, N 76) was 0.37 ng/mL. For the same compound, the “Urine concentration, mean” value ([1]; Research building, N 25) was 1.9 ng/mL, the “Urine concentration, median” value ([1]; Research building, N 25) was 0.97 ng/mL and the “Urine concentration, mean” value ([1]; Sulfonation department, N 98) was 7.1 ng/mL. For the same compound, the “Urine concentration, median” value ([1]; Sulfonation department, N 98) was 3.7 ng/mL, the “Shortest half-life in humans reported in previous studies” value [2] was 7.3 years and the “Half-life based on serum concentrations” value ([2]; humans) was “more than 5 years”. For the same compound, the “Half-life (GM)” value ([2]; retired fluorochemical production workers) was 7.3 years, the “Half-life by daily clearance (GM)” value ([2]; young females) was 7.8 years and the “Half-life estimated through daily elimination, Max” value [3, 7] was 15.1 years. For the same compound, the “Half-life estimated through daily elimination, Min” value [3, 7] was 2.8 years, the “Half-life estimated through daily elimination, Min” value ([3]; Male workers, number 136, renal clearance) was 0.51 years and the “Half-life estimated through daily elimination, Min” value ([3]; Total workers, number 207) was 0.51 years. For the same compound, the half-life ([3]; both sexes, Total workers, number 207, read-out: Half-life estimated through daily elimination, GM (converted)) was 5370 days, the half-life ([3]; both sexes, Total workers, number 207, read-out: Half-life estimated through daily elimination, Median (converted)) was 4270 days and the half-life ([3]; female, Female workers, number 71, menstrual clearance added to renal clearance, read-out: Half-life estimated through daily elimination, GM (converted)) was 2740 days. For the same compound, the half-life ([3]; female, Female workers, number 71, menstrual clearance added to renal clearance, read-out: Half-life estimated through daily elimination, Median (converted)) was 2780 days, the half-life ([3]; male, Male workers, number 136, renal clearance, read-out: Half-life estimated through daily elimination, Median (converted)) was 5300 days and the “Vd (volume of distribution in the human body)” value [4] was 0.23 L/kg. For the same compound, the “Annual drop of serum concentration” value ([5]; 2009 to 2010, 37 workers) was 19% and the half-life ([5]; human, k = average annual serum decline rate, no new inputs assumed, two time points) was 1310 days.
